Results: patent publication US10807986B2, “Fused pyrimidine compound or salt thereof” (TAIHO PHARMACEUTICAL CO., LTD., priority 2016, dated 2020)

Assay: Evaluation of stability in liver microsome
Settings: mouse liver microsome 0.25 mg/mL, test compound 1 μM, 37° C., 30 minutes

Remaining (%) | Compound
72% | COCc1ccc(NC(=O)c2c(-c3ccc(CO)cc3)n(C3(C)CC3)c3ncnc(N)c23)cc1 [Example 145, 4-amino-6-(4-(hydroxymethyl)phenyl)-N-(4-(methoxymethyl)phenyl)-7-(1-methylcyclopropyl)-7H-pyrrolo[2,3-d]pyrimidine-5-carboxamide]
68% | COCc1ccc(NC(=O)c2c(-c3ccc(NC(C)=O)nc3)n(C3(C)CC3)c3ncnc(N)c23)cc1 [Example 147, 6-(6-acetamidopyridin-3-yl)-4-amino-N-(4-(methoxymethyl)phenyl)-7-(1-methylcyclopropyl)-7H-pyrrolo[2,3-d]pyrimidine-5-carboxamide]
61% | COCc1ccc(NC(=O)c2c(-c3ccc(O)cc3)n(C3(C)CC3)c3ncnc(N)c23)cc1 [Example 148, 4-amino-6-(4-hydroxyphenyl)-N-(4-(methoxymethyl)phenyl)-7-(1-methylcyclopropyl)-7H-pyrrolo[2,3-d]pyrimidine-5-carboxamide]
62% | C=C(C)c1c(C(=O)Nc2ccc(COC)cc2)c2c(N)ncnc2n1C1(C)CC1 [Example 149, 4-amino-N-(4-(methoxymethyl)phenyl)-7-(1-methylcyclopropyl)-6-(prop-1-en-2-yl)-7H-pyrrolo[2,3-d]pyrimidine-5-carboxamide]
78% | COCc1ccc(NC(=O)c2c(-c3cnn(C)c3)n(C3(C)CC3)c3ncnc(N)c23)cc1 [Example 150, 4-amino-N-(4-(methoxymethyl)phenyl)-6-(1-methyl-1H-pyrazol-4-yl)-7-(1-methylcyclopropyl)-7H-pyrrolo[2,3-d]pyrimidine-5-carboxamide]
50% | COCc1ccc(NC(=O)c2c(-c3ccccc3)n(C3(C)CC3)c3ncnc(N)c23)cc1 [Example 154, 4-amino-N-(4-(methoxymethyl)phenyl)-7-(1-methylcyclopropyl)-6-phenyl-7H-pyrrolo[2,3-d]pyrimidine-5-carboxamide]
59% | CCC(O)CC#Cc1c(C(=O)Nc2ccc(COC)cc2)c2c(N)ncnc2n1C1(C)CC1 (centres unmarked) [Example 157, 4-amino-6-(4-hydroxyhex-1-yn-1-yl)-N-(4-(methoxymethyl)phenyl)-7-(1-methylcyclopropyl)-7H-pyrrolo[2,3-d]pyrimidine-5-carboxamide]
80% | COCc1ccc(NC(=O)c2c(-c3cn[nH]c3)n(C3(C)CC3)c3ncnc(N)c23)cc1 [Example 167, 4-amino-N-(4-(methoxymethyl)phenyl)-7-(1-methylcyclopropyl)-6-(1H-pyrazol-4-yl)-7H-pyrrolo[2,3-d]pyrimidine-5-carboxamide]
72% | COCc1ccc(NC(=O)c2c(C#CC(C)(C)O)n(C3(C)CC3)c3ncnc(N)c23)cc1 [Example 174, 4-amino-6-(3-hydroxy-3-methylbut-1-yn-1-yl)-N-(4-(methoxymethyl)phenyl)-7-(1-methylcyclopropyl)-7H-pyrrolo[2,3-d]pyrimidine-5-carboxamide]
70% | COCc1ccc(NC(=O)c2c(C#Cc3ccsc3)n(C3(C)CC3)c3ncnc(N)c23)cc1 [Example 176, 4-amino-N-(4-(methoxymethyl)phenyl)-7-(1-methylcyclopropyl)-6-(thiophen-3-ylethynyl)-7H-pyrrolo[2,3-d]pyrimidine-5-carboxamide]
72% | COCc1ccc(NC(=O)c2c(C#CC3(O)CCOC3)n(C3(C)CC3)c3ncnc(N)c23)cc1 (centres unmarked) [Example 177, 4-amino-6-((3-hydroxytetrahydrofuran-3-yl)ethynyl)-N-(4-(methoxymethyl)phenyl)-7-(1-methylcyclopropyl)-7H-pyrrolo[2,3-d]pyrimidine-5-carboxamide]
85% | COCc1ccc(NC(=O)c2c(-c3ccc(CO)nc3)n(C3(C)CC3)c3ncnc(N)c23)cc1 [Example 179, 4-amino-6-(6-(hydroxymethyl)pyridin-3-yl)-N-(4-(methoxymethyl)phenyl)-7-(1-methylcyclopropyl)-7H-pyrrolo[2,3-d]pyrimidine-5-carboxamide]

The remaining lines, values behind:

Compound | Remaining (%)
COCc1ccc(NC(=O)c2c(C#CCC3(O)CCOCC3)n(C3(C)CC3)c3ncnc(N)c23)cc1 [Example 143, 4-amino-6-(3-(4-hydroxytetrahydro-2H-pyran-4-yl)prop-1-yn-1-yl)-N-(4-(methoxymethyl)phenyl)-7-(1-methylcyclopropyl)-7H-pyrrolo[2,3-d]pyrimidine-5-carboxamide] | 68%
COCc1ccc(NC(=O)c2c(C#Cc3cnn(C(C)C)c3)n(C3(C)CC3)c3ncnc(N)c23)cc1 [Example 144, 4-amino-6-((1-isopropyl-1H-pyrazol-4-yl)ethynyl)-N-(4-(methoxymethyl)phenyl)-7-(1-methylcyclopropyl)-7H-pyrrolo[2,3-d]pyrimidine-5-carboxamide] | 79%
COCc1ccc(NC(=O)c2c(C#CCC3CCOCC3)n(C3(C)CC3)c3ncnc(N)c23)cc1 [Example 152, 4-amino-N-(4-(methoxymethyl)phenyl)-7-(1-methylcyclopropyl)-6-(3-(tetrahydro-2H-pyran-4-yl)prop-1-yn-1-yl)-7H-pyrrolo[2,3-d]pyrimidine-5-carboxamide] | 57%
COCc1ccc(NC(=O)c2c(C#Cc3ccc(N)nc3)n(C3(C)CC3)c3ncnc(N)c23)cc1 [Example 155, 4-amino-6-((6-aminopyridin-3-yl)ethynyl)-N-(4-(methoxymethyl)phenyl)-7-(1-methylcyclopropyl)-7H-pyrrolo[2,3-d]pyrimidine-5-carboxamide] | 64%
COCc1ccc(NC(=O)c2c(C#CCC3NC(=O)NC3=O)n(C3(C)CC3)c3ncnc(N)c23)cc1 (centres unmarked) [Example 156, 4-amino-6-(3-(2,5-dioxoimidazolidin-4-yl)prop-1-yn-1-yl)-N-(4-(methoxymethyl)phenyl)-7-(1-methylcyclopropyl)-7H-pyrrolo[2,3-d]pyrimidine-5-carboxamide] | 67%
COCc1ccc(NC(=O)c2c(C#Cc3ccc4c(c3)NCCO4)n(C3(C)CC3)c3ncnc(N)c23)cc1 [Example 158, 4-amino-6-((3,4-dihydro-2H-benzo[b][1,4]oxazin-6-yl)ethynyl)-N-(4-(methoxymethyl)phenyl)-7-(1-methylcyclopropyl)-7H-pyrrolo[2,3-d]pyrimidine-5-carboxamide] | 85%
COCc1ccc(NC(=O)c2c(C#Cc3cnc4ccoc4c3)n(C3(C)CC3)c3ncnc(N)c23)cc1 [Example 159, 4-amino-6-(furo[3,2-b]pyridin-6-ylethynyl)-N-(4-(methoxymethyl)phenyl)-7-(1-methylcyclopropyl)-7H-pyrrolo[2,3-d]pyrimidine-5-carboxamide] | 78%
COCc1ccc(NC(=O)c2c(C#Cc3ccc[nH]3)n(C3(C)CC3)c3ncnc(N)c23)cc1 [Example 161, 6-((1H-pyrrol-2-yl)ethynyl)-4-amino-N-(4-(methoxymethyl)phenyl)-7-(1-methylcyclopropyl)-7H-pyrrolo[2,3-d]pyrimidine-5-carboxamide] | 68%
COCc1ccc(NC(=O)c2c(C#Cc3ccccc3)n(C3(C)CC3)c3ncnc(N)c23)cc1 [Example 162, 4-amino-N-(4-(methoxymethyl)phenyl)-7-(1-methylcyclopropyl)-6-(phenylethynyl)-7H-pyrrolo[2,3-d]pyrimidine-5-carboxamide] | 76%
COCc1ccc(NC(=O)c2c(C#Cc3ccc(OC)cc3)n(C3(C)CC3)c3ncnc(N)c23)cc1 [Example 165, 4-amino-N-(4-(methoxymethyl)phenyl)-6-((4-methoxypheny)ethynyl)-7-(1-methylcyclopropyl)-7H-pyrrolo[2,3-d]pyrimidine-5-carboxamide] | 90%
COCc1ccc(NC(=O)c2c(-c3ccc(N4CCN(C)CC4)cc3)n(C3(C)CC3)c3ncnc(N)c23)cc1 [Example 171, 4-amino-N-(4-(methoxymethyl)phenyl)-7-(1-methylcyclopropyl)-6-(4-(4-methylpiperazin-1-yl)phenyl)-7H-pyrrolo[2,3-d]pyrimidine-5-carboxamide] | 77%
COCc1ccc(NC(=O)c2c(C#Cc3ccccn3)n(C3(C)CC3)c3ncnc(N)c23)cc1 [Example 172, 4-amino-N-[4-(methoxymethyl)phenyl]-7-(1-methylcyclopropyl)-6-(pyridin-2-ylethynyl)-7H-pyrrolo[2,3-d]pyrimidine-5-carboxamide] | 61%
COCc1ccc(NC(=O)c2c(C#Cc3cncc(F)c3)n(C3(C)CC3)c3ncnc(N)c23)cc1 [Example 175, 4-amino-6-((5-fluoropyridin-3-yl)ethynyl)-N-(4-(methoxymethyl)phenyl)-7-(1-methylcyclopropyl)-7H-pyrrolo[2,3-d]pyrimidine-5-carboxamide] | 66%
COCc1ccc(NC(=O)c2c(C#CCN3CC[S+]([O-])CC3)n(C3(C)CC3)c3ncnc(N)c23)cc1 [Example 178, 4-amino-N-(4-(methoxymethyl)phenyl)-7-(1-methylcyclopropyl)-6-(3-(1-oxidethiomorpholino)prop-1-yn-1-yl)-7H-pyrrolo[2,3-d]pyrimidine-5-carboxamide] | 88%
COCc1ccc(NC(=O)c2c(C#Cc3cn(C)nc3C)n(C3(C)CC3)c3ncnc(N)c23)cc1 [Example 181, 4-amino-6-((1,3-dimethyl-1H-pyrazol-4-yl)ethynyl)-N-(4-(methoxymethyl)phenyl)-7-(1-methylcyclopropyl)-7H-pyrrolo[2,3-d]pyrimidine-5-carboxamide] | 62%
COCc1ccc(NC(=O)c2c(C#Cc3cnn(C)c3C)n(C3(C)CC3)c3ncnc(N)c23)cc1 [Example 182, 4-amino-6-((1,5-dimethyl-1H-pyrazol-4-yl)ethynyl)-N-(4-(methoxymethyl)phenyl)-7-(1-methylcyclopropy1)-7H-pyrrolo[2,3-d]pyrimidine-5-carboxamide] | 61%
COCc1ccc(NC(=O)c2c(C#CC3CCN(C)CC3)n(C3(C)CC3)c3ncnc(N)c23)cc1 [Example 183, 4-amino-N-(4-(methoxymethyl)phenyl)-7-(1-methylcyclopropyl)-6-((1-methylpiperidin-4-yl)ethynyl)-7H-pyrrolo[2,3-d]pyrimidine-5-carboxamide] | 77%
